Assay results published in PMC5390467, “Novel lead structures with both Plasmodium falciparum gametocytocidal and asexual blood stage activity identified from high throughput compound screening” (Malaria Journal, 2017).

Legend:
Test in all cases: Kinome scan profile
Assay type in all cases: binding
Settings in all cases: 10 μM
TRKA = target: T1, TRKA (Homo sapiens, UniProt P04629)
T1 construct: purchased DiscoverX (KINOMEscan)

ALK(C1156Y) = target: T2, ALK(C1156Y) (Homo sapiens, UniProt Q9UM73, C1156Y)
T2 construct: purchased DiscoverX (KINOMEscan)

MYLK = target: T3, MYLK (Homo sapiens, UniProt Q15746)
T3 construct: purchased DiscoverX (KINOMEscan)

PRKG2 = target: T4, PRKG2 (Homo sapiens, UniProt Q13237)
T4 construct: purchased DiscoverX (KINOMEscan)
T4 sequence (Q13237 1-762): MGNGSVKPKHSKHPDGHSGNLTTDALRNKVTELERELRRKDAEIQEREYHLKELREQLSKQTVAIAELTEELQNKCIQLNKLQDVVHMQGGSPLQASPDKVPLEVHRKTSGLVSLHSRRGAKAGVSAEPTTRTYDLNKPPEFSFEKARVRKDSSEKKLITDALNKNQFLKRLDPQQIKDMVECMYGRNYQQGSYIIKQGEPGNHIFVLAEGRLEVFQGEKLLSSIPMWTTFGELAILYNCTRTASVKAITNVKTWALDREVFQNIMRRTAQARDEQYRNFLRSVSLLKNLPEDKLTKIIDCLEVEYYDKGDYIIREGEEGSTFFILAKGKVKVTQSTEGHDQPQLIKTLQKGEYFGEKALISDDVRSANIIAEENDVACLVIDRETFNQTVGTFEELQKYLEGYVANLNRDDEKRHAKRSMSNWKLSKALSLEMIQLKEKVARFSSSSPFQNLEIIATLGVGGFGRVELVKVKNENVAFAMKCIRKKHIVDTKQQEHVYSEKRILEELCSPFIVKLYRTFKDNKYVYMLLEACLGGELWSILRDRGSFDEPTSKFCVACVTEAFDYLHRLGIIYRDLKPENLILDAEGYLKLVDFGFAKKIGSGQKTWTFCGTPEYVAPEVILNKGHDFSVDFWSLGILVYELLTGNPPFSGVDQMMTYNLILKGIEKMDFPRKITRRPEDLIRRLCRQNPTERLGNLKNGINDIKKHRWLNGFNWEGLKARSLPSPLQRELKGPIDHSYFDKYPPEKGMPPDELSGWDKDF

KIT(A829P) = target: T5, KIT(A829P) (Homo sapiens, UniProt P10721, A829P)
T5 construct: purchased DiscoverX (KINOMEscan)

MAP3K3 = target: T6, MAP3K3 (Homo sapiens, UniProt Q99759)
T6 construct: purchased DiscoverX (KINOMEscan)
T6 sequence (Q99759 1-626): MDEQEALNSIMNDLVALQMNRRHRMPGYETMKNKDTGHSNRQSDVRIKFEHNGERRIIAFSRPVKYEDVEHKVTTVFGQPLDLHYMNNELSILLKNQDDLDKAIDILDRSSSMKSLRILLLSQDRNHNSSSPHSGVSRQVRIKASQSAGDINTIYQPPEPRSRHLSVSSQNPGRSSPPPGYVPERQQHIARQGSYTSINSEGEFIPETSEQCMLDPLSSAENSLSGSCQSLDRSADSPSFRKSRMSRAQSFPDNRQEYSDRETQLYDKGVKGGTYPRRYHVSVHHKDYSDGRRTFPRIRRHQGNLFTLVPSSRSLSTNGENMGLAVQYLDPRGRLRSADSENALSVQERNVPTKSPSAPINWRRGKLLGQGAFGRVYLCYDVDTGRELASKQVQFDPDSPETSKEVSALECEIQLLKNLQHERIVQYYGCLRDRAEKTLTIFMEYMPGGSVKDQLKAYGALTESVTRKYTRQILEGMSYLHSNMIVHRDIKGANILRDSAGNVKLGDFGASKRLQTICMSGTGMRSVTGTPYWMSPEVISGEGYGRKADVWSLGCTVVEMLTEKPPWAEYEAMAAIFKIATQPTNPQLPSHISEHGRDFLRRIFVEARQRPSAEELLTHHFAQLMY

T5 sequence (P10721 26-976 A829P): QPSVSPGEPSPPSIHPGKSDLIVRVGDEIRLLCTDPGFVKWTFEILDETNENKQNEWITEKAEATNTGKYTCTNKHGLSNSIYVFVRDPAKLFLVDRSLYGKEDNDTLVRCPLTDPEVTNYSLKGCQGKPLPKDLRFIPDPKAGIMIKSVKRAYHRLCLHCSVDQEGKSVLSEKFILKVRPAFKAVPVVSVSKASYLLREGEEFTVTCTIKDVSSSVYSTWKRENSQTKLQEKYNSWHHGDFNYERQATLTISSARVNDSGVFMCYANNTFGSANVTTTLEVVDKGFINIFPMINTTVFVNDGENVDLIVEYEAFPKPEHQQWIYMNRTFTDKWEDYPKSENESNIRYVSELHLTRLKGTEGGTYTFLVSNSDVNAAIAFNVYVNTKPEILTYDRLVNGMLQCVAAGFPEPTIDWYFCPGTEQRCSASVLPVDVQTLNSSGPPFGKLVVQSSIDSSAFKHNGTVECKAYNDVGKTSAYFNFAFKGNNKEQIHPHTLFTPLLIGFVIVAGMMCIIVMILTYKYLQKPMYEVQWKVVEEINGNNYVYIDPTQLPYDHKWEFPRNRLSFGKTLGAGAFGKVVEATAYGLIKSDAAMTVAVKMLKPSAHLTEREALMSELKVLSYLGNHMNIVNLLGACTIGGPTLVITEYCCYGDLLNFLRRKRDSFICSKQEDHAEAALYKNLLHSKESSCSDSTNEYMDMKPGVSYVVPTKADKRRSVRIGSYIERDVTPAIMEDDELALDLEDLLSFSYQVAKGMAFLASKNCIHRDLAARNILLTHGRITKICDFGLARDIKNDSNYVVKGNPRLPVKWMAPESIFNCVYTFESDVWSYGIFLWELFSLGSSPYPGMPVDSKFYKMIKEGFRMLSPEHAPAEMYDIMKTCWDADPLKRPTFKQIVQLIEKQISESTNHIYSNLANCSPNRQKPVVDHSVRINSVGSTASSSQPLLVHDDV
T1 sequence (P04629 33-796): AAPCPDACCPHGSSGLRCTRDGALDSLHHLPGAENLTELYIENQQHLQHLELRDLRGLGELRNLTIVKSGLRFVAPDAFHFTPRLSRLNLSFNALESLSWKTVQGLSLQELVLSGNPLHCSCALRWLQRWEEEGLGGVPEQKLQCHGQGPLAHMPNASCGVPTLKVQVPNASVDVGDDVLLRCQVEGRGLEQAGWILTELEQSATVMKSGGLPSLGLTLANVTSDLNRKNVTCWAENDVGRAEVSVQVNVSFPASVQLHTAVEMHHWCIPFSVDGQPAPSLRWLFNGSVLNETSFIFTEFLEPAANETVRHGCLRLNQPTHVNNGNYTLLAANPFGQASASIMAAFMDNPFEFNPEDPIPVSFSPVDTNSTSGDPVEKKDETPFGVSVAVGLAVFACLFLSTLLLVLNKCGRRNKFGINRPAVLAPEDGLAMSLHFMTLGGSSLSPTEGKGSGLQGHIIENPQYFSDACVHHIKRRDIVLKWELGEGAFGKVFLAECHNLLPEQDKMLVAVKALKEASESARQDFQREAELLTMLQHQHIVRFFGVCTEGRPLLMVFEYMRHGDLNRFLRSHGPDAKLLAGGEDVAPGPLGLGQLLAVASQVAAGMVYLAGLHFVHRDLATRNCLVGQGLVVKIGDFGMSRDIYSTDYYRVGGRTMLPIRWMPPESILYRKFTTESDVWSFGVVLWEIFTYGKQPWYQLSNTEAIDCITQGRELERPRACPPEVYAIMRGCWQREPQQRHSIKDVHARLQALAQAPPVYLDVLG
T3 sequence (Q15746 whole entry): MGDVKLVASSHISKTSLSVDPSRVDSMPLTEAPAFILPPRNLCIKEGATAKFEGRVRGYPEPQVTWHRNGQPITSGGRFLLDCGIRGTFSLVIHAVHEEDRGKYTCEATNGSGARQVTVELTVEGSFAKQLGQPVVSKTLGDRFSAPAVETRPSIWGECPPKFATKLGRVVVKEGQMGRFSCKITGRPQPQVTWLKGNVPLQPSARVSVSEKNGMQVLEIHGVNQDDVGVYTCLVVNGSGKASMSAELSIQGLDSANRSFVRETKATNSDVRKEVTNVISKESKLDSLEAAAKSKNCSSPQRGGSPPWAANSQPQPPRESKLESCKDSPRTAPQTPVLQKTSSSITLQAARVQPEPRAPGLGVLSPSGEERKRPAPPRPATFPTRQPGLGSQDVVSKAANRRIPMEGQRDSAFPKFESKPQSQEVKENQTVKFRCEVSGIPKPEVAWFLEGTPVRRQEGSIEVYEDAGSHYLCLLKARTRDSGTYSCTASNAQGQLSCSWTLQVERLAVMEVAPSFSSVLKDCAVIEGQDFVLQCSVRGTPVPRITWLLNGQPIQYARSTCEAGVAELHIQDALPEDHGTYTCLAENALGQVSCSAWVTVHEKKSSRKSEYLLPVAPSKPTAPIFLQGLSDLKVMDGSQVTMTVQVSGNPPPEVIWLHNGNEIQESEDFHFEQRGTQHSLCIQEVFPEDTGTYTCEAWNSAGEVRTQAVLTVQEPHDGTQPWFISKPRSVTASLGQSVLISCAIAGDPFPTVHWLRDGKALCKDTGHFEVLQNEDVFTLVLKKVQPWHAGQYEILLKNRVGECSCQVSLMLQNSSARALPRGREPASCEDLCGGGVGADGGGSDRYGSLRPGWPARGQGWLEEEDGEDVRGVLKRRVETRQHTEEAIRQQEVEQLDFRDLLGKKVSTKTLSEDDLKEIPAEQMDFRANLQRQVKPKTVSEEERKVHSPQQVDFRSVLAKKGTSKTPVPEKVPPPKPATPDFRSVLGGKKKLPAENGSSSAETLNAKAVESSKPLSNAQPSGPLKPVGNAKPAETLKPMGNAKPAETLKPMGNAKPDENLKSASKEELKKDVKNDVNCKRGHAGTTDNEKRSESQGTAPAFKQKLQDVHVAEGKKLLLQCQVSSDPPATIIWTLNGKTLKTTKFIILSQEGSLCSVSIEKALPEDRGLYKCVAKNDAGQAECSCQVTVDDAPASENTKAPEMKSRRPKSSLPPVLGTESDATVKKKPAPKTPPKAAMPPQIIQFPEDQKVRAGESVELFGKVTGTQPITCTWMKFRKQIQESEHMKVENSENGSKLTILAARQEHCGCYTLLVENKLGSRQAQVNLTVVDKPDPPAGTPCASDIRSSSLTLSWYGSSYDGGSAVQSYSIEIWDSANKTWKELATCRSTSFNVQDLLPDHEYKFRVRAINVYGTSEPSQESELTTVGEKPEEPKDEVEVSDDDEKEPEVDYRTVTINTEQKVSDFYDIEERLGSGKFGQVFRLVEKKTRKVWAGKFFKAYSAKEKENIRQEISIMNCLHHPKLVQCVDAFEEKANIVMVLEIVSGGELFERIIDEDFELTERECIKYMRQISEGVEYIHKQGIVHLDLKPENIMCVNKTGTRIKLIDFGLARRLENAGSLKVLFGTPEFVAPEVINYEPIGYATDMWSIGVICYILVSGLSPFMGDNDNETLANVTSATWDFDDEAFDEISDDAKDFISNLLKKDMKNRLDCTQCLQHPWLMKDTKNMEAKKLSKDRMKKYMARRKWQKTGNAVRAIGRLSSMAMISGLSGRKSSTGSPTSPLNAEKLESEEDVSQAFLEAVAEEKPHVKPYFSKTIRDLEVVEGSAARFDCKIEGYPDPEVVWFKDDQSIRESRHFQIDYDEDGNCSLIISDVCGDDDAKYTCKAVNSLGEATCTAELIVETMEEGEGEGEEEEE

Structure (SMILES): CCN1CCN(Cc2c(O)ccc3c(=O)c(Oc4ccccc4C(C)C)c(C(F)(F)F)oc23)CC1 [NCGC00100599]
- % Control, TRKA (TRKA): 22 % Control
- % Control, ALK(C1156Y) (ALK(C1156Y)): 28 % Control
- % Control, MYLK (MYLK): 31 % Control
- % Control, PRKG2 (PRKG2): 32 % Control
- % Control, KIT(A829P) (KIT(A829P)): 34 % Control
- % Control, MAP3K3 (MAP3K3): 34 % Control
